Test results from ChEMBL document CHEMBL1201862, “PubChem BioAssay data set” (2004).
The source made the active and inactive calls. For most assays here, no stated cut-off is given here; in the data, actives have a measured EC50 and inactives only a lower limit.

Tests used:
Fatty acid synthase [1] = target: T1, Fatty acid synthase (Homo sapiens, UniProt P49327); test: inhibition of human FAS-TE enzyme activity – biochemical, endpoint fluorescence intensity, uHTS hits, dose response (AID 624327); type: functional;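 further: fluorescence from hydrolysis of an O-methyl fluorescein acyl ester substrate by the enzyme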
Fatty acid synthase [2] = target: T1, Fatty acid synthase; test: inhibition of human FAS-TE enzyme activity – biochemical, kinetic fluorescence intensity, dose response (AID 624326); type: functional;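 further: rate of fluorescence rise from hydrolysis of a fluorogenic O-methyl fluorescein ester substrate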
[3] = target: T2, Calpain-2 catalytic subunit (Sus scrofa, UniProt P43367); test: m-calpain protease blockers, concentration series – biochemical, fluorogenic peptide substrate, dose response (AID 1420); type: functional
T2 sequence (P43367 whole entry): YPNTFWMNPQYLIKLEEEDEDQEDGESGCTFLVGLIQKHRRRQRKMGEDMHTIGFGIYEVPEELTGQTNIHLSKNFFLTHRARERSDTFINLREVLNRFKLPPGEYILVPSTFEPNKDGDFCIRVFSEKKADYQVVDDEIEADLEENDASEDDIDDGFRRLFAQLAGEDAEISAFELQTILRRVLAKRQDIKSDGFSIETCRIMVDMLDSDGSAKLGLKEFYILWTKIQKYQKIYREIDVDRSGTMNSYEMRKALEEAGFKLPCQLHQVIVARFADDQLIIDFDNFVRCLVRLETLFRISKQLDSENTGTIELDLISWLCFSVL

[4] = Trypanosoma cruzi growth suppression in host cells – NIH3T3 host cells, beta-gal luminescence, confirmation (AID 2044); type: functional, cell-based;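 further: intracellular parasites grown in NIH/3T3 mouse fibroblasts as host cells; luminescent beta-galactosidase reporter signal from transgenic T. cruzi replicating inside host cells; inhibitors lower the luminescence signal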
[5] = NIH3T3 cell viability loss – ATP luminescence, mouse fibroblasts, counter-screen, dose response (AID 2010); type: functional, cell-based;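 further: cells exposed to compound for about 90 hours before reading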
[6] = target: Luciferin 4-monooxygenase (Photinus pyralis, UniProt P08659); test: inhibition of purified Photinus pyralis luciferase – biochemical, luminescence, dose response (AID 1891)
[7] = Luminescence Cell-Based Dose Confirmation HTS to Identify Inhibitors of Platelet Dense Granule Release. [Related pubchem assays: 1663 (Primary HTS), 1678 (Summary of Project)]; type: functional
[8] = Luminescence Cell-Based Dose Confirmation HTS to Identify Activators of 5'UTR Stem-Loop Driven Alpha-Synuclein mRNA Translation in H4 Neuroglioblastoma Cells. [Related pubchem assays: 1829 (Project Summary), 1814 (Primary HTS)]; type: functional
[9] = Luminescence Cell-Based Dose Response HTS to Identify Activators of Luciferase Translation or Activity in H4 […] Cells. [Related pubchem assays: 1829 (Project Summary), 1814 (Primary HTS)]; type: functional
H4 = test: Luminescence Cell-Based Dose Response HTS to Identify Activators of 5'UTR Stem-Loop Driven Prion Protein mRNA Translation in H4 Neuroglioblastoma Cells. [Related pubchem assays: 1829 (Project Summary), 1814 (Primary HTS)]; type: functional; settings: Homo sapiens
[10] = microbe, parasite or virus in culture; type: functional; settings: Mycobacterium tuberculosis
[11] = target: T3, Replicative DNA helicase DnaB (Mycobacterium tuberculosis, UniProt P9WMR3); test: DnaB intein splicing inhibitors, dose response, biochemical, cell-free fluorescence (AID 449749); type: functional
T3 sequence (P9WMR3 whole entry): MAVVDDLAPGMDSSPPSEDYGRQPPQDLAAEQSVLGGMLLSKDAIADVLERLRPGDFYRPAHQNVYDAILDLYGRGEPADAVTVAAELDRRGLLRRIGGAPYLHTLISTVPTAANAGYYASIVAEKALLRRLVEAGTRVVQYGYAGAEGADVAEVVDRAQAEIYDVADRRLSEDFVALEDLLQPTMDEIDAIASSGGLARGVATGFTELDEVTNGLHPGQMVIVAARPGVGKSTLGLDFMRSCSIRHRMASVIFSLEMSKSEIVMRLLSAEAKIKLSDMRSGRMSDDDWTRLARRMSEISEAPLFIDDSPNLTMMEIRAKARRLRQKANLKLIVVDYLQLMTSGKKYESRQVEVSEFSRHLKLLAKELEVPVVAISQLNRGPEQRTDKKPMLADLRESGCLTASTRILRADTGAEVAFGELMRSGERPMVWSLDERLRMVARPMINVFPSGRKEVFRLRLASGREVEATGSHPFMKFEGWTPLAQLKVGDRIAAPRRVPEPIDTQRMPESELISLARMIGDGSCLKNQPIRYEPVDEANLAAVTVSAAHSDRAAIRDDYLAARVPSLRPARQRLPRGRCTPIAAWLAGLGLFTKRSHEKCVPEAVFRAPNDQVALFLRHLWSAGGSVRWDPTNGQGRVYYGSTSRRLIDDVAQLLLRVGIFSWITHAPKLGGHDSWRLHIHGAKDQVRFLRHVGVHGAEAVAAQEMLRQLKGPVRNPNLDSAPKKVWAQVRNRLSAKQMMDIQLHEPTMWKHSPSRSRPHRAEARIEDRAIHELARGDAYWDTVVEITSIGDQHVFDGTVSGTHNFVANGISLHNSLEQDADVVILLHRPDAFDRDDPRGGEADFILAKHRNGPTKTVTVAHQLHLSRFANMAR

Protein RecA = target: T4, Protein RecA (Mycobacterium tuberculosis, UniProt P9WHJ3); test: Fluorescence Cell-Free Homogeneous Dose Retest to Identify Inhibitors of RecA-Intein Splicing Activity. [Related pubchem assays (depositor defined):AID2097, AID2223, AID489010, AID492950]; type: functional
T4 sequence (P9WHJ3 whole entry): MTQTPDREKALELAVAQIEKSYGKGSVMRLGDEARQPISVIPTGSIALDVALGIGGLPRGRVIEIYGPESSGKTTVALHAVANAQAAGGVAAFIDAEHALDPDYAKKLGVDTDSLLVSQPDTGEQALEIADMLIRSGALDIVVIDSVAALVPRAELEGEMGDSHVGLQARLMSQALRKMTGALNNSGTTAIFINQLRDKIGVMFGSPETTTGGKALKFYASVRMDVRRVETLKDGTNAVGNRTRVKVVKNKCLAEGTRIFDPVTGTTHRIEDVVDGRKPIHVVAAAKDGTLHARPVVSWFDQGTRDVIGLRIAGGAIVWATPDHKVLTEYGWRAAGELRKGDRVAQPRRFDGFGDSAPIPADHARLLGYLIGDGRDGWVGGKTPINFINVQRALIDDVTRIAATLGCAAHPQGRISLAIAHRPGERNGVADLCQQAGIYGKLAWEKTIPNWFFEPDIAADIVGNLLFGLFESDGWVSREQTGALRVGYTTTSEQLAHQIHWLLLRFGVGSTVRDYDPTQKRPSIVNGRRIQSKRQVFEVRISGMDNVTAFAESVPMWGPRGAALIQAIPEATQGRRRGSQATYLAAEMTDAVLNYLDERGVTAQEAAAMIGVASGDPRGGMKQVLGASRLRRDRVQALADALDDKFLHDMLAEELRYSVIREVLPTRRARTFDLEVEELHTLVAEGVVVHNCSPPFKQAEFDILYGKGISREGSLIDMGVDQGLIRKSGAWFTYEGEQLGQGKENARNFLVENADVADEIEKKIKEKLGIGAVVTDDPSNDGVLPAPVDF

[12] = reduction of Shn3 3'UTR-driven luciferase in osteoblasts – cell-based, Clone20 osteoblasts, firefly luciferase, cherry-picked, dose response (AID 624132); type: functional;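 further: firefly luciferase luminescence from reporter carrying the Shn3 3'UTR in osteoblasts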
[13] = loss of viability in HepG2 cells – cell-based, CellTiter-Glo, cherry-picked, cytotoxicity control for Shn3 inhibitor project, dose response (AID 624134); type: functional
[14] = non-specific 3'UTR reporter inhibition in Clone20-Shn3RL – cell-based, Renilla luciferase, cherry-picked, counter-screen for Shn3 inhibitor project, dose response (AID 624133); type: functional
[15] = system: Streptococcus sp. 'group A'; test: Streptococcus pyogenes SK(-)GAS viability under kanamycin – luminescence, BacTiterGlo, confirmation, counter-screen for streptokinase expression inhibitor project, dose response (AID 1900); type: functional, organism-based
Streptokinase A = target: T5, Streptokinase A (Streptococcus pyogenes serotype M1, UniProt P10520); test: viability-normalized secreted streptokinase activity reduction – plasminogen activation absorbance, OD405, dose response (AID 1914); type: functional, Streptococcus pyogenes M1 GAS;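 further: secreted streptokinase activity via plasminogen activation per viability signal from cell pellet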
T5 sequence (P10520 whole entry): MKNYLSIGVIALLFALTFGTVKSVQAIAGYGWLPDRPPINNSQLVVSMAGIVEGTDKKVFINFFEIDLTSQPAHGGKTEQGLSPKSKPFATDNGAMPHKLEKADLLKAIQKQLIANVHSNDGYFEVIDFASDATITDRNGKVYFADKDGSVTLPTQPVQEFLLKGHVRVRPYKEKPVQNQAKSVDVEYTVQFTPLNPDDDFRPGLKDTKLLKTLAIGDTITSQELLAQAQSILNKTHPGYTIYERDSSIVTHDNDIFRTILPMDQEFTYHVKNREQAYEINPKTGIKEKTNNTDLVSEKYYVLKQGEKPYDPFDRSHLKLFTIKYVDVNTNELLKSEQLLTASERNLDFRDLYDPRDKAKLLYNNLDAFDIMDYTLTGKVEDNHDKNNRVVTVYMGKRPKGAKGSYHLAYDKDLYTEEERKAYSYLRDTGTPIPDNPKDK

Streptococcus = test: GAS UMAA2166 growth inhibition – luminescence, BacTiterGlo, counter-screen for streptokinase expression inhibitor project, dose response (AID 1915); type: functional, organism-based;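 further: potency for reduction of bacterial viability or growth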
[16] = NIH-3T3 fibroblast cytotoxicity, dose response, cytotoxicity control, cell-based, fluorescence, Alamar Blue, secondary assay (AID 2327); type: functional;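 further: NIH-3T3 mouse fibroblasts cultured with fluconazole at 8 µg/mL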
[17] = fluconazole-exposed Candida albicans growth modulators – fluorescence, retest, confirmation (AID 2467); type: functional, cell-based
H9c2 = test: cells; type: functional, cell-based; settings: Rattus norvegicus, H9c2, Myocardium
[18] = blockers of HIV-1 envelope-mediated cell-cell fusion – cherry-pick, dose response (AID 652057); type: functional, cell-based
Genome polyprotein = Genome polyprotein (dengue virus type 2, UniProt P29990); test: flavivirus cap methylation enzyme inhibition – biochemical, confirmation dose response, primary screen (AID 588689); type: functional
Genome polyprotein, sequence (P29990 2492-3391 limits assumed): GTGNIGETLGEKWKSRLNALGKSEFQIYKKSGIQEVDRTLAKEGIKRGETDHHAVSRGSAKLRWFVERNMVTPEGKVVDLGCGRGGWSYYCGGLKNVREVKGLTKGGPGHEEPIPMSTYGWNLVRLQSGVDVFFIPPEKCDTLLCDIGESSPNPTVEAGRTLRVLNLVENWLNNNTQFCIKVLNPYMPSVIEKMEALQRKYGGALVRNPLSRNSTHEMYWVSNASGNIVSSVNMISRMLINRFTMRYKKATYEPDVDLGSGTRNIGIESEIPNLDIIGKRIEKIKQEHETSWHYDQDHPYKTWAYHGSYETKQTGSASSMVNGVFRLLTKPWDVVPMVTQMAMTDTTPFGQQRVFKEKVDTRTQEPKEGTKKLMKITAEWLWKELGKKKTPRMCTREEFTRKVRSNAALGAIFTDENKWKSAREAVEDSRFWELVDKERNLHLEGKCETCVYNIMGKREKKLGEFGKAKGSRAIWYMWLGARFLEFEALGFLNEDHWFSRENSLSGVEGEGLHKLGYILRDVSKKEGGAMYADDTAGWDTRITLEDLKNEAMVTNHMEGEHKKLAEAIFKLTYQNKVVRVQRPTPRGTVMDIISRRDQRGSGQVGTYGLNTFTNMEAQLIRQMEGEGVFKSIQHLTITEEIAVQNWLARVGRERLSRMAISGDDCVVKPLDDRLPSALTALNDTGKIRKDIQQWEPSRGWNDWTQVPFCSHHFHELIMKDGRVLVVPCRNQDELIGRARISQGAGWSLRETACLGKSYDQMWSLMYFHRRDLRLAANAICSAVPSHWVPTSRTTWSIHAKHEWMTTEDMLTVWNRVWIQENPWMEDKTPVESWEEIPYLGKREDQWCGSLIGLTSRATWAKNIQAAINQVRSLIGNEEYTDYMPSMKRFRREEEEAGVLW

Luciferin 4-monooxygenase, sequence (P08659 whole entry): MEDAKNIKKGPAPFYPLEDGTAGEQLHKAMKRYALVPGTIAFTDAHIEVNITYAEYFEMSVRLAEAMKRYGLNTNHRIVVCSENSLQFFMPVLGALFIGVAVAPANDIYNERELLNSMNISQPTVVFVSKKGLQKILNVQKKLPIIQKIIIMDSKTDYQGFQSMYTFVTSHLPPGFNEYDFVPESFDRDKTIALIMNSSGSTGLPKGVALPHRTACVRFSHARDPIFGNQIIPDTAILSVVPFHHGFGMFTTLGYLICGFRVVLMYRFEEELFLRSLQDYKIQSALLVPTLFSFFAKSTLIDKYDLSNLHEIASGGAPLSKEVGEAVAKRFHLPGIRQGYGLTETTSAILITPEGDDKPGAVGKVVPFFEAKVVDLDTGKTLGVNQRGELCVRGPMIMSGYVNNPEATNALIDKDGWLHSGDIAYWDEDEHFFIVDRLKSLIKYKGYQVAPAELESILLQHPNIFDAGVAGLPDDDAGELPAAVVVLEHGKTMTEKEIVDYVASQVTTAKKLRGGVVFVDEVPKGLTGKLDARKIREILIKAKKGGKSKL
T1 sequence (P49327 whole entry): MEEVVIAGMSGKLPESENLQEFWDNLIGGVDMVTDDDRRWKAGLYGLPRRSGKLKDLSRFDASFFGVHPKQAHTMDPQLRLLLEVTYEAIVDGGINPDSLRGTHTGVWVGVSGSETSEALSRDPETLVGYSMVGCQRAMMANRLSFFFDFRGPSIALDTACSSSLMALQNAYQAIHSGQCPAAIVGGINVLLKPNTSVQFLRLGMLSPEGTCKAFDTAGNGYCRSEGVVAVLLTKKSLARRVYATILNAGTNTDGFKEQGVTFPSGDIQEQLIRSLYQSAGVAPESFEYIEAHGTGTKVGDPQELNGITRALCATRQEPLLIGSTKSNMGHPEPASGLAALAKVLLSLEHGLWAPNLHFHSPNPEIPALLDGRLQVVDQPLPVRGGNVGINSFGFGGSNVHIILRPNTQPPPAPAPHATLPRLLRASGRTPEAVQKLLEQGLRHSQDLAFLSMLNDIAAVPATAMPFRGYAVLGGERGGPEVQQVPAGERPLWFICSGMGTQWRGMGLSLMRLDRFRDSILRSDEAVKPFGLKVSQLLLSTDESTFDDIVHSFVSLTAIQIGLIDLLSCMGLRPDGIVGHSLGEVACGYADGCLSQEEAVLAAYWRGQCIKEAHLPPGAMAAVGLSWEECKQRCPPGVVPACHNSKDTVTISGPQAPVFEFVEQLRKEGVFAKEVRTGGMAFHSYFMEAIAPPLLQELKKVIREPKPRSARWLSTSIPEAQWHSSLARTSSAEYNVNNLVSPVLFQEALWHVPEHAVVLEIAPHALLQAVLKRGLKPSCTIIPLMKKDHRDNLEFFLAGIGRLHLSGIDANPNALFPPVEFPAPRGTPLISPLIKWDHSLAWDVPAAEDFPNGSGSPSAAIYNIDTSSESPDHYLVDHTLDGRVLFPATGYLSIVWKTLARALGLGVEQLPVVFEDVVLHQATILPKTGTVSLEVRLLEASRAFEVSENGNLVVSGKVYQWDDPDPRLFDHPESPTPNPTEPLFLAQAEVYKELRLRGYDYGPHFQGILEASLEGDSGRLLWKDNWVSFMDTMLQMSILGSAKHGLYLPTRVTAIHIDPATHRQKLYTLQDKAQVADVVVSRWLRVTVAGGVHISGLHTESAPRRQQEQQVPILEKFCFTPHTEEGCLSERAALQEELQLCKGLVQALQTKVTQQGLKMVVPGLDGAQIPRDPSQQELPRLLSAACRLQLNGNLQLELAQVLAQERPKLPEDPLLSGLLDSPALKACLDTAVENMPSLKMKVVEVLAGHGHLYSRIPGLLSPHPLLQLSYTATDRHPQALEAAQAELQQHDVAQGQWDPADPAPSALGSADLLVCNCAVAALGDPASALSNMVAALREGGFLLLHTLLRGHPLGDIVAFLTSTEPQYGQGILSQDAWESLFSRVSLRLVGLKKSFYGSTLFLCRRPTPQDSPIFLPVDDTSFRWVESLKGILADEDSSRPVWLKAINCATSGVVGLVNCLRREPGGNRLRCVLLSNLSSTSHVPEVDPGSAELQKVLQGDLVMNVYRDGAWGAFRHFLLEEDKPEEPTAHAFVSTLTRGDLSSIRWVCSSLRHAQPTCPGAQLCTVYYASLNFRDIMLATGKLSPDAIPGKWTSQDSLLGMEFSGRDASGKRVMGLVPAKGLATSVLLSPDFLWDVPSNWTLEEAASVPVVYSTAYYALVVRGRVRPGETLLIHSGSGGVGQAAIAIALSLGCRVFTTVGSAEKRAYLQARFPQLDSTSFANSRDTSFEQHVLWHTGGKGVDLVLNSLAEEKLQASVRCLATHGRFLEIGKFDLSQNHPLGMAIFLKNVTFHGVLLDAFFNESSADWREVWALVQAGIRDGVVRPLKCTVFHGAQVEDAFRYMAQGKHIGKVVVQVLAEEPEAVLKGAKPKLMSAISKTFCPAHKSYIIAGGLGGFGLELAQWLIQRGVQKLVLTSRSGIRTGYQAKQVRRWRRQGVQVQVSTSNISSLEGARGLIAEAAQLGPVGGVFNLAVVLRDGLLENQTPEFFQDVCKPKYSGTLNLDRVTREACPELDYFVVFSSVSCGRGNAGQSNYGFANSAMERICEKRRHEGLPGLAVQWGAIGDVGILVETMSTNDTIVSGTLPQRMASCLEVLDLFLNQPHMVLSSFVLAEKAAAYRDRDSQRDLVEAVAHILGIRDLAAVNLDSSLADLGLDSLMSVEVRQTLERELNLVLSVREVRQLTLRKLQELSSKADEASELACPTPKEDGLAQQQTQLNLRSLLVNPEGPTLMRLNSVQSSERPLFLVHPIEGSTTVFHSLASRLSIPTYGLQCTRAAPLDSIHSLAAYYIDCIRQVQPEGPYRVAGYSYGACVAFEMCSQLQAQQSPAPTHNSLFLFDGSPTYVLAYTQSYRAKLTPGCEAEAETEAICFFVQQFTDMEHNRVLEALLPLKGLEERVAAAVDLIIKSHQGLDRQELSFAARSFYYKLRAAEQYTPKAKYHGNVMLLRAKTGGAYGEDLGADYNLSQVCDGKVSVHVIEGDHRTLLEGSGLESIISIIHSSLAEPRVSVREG

## O=C(COc1ncnc2cc([N+](=O)[O-])ccc12)N(CCc1ccccc1)Cc1ccccc1
Fatty acid synthase [1]
  IC50: 5.94 µM (active)
Fatty acid synthase [2]
  IC50: 22.2 µM (inactive)

## CCN(CC(O)Cn1c2ccccc2c2ccccc21)S(=O)(=O)c1ccc(F)cc1 (stereo not given)
[3]
  IC50: 6.55 µM (not active)

## Cc1ccc(-c2nc3c(c(=O)[nH]c(=O)n3CC(C)C)n2CC(C)C)cc1[N+](=O)[O-]
[4]
  EC50: 1.41 µM (active)
[3]
  IC50: 16.1 µM (not active)
[5]
  EC50: > 30 µM (not active)

## CC(C)(C)OC(=O)Nc1ncnc2c1ncn2C1OC(CO)C2OC(C)(C)OC21 (stereo not given)
[6]
  EC50: > 112 µM (not active)
[7]
  EC50: > 112 µM (not active)

## COc1ccc(C(=O)/C=C/Sc2nc3ccccc3o2)cc1
[8]
  EC50: 17.4 µM (active)
[9]
  EC50: 96.7 µM (active)
H4
  EC50: 14.5 µM (active)
[10]
  CC50: 32.4 µM (active)
[11]
  AC50: > 380 µM (inactive)
Protein RecA
  EC50: 54.4 µM (active)

## O[C@@H]1CN(Cc2ccc(-n3cccn3)cc2)CC[C@H]1N1CCN(c2ccccc2F)CC1
[12]
  AC50: 2.13 µM (active)
[13]
  AC50: 68 µM (active)
[14]
  AC50: 2.39 µM (active)

## O=C(CSc1nc(Nc2ccccc2)nc(N2CCOCC2)n1)Nc1cc(Cl)ccc1O
[15]
  EC50: 6.55 µM (active)
Streptokinase A
  EC50: 30.7 µM (active)
[10]
  CC50: 17 µM (active)
Streptococcus
  EC50: 18.5 µM (active)

## CCCCn1c(-c2ccc(C(C)(C)C)cc2)nc2cc3nc(O)c(C(C)C)nc3cc21
[10]
  CC50: 32.7 µM (active)

## CCN(C(=O)CSc1nnc(C)n1-c1ccccc1)C1CCS(=O)(=O)C1 (stereo not given)
[6]
  EC50: > 112 µM (not active)
[7]
  EC50: > 112 µM (not active)

## CCCCNC(=S)N/N=C/c1ccccc1F
[3]
  IC50: 5.17 µM (active)

## CC(=O)c1cnc2cc(-c3cccc(Br)c3)nn2c1C
[16]
  EC50: > 150 µM (inconclusive)
[17]
  EC50: > 38 µM (not active)

## Cn1c(NN)nc2sc3c(c2c1=O)CCC3
[16]
  EC50: > 150 µM (inactive)

## O=C(NC1CCCCC1)C12CC3CC(CC(Cl)(C3)C1)C2
[6]
  EC50: > 112 µM (not active)
[7]
  EC50: > 112 µM (not active)

## CCOC(=O)CNS(=O)(=O)c1cc(-c2nnc(O)c3ccccc23)ccc1C
[6]
  EC50: > 112 µM (not active)
[7]
  EC50: 7.49 µM (active)
H9c2
  IC50: > 79 µM (inactive)

## O=C(NCc1ccccc1Cl)C1CCCN(c2nc3ccsc3c(=O)s2)C1 (stereo not given)
[3]
  IC50: 15.9 µM (not active)

## COc1ccc([Si](C)(C)[C@H]2[C@H](CCO)O[C@@]3(C(=O)N(Cc4cccc(N5CCOC5=O)c4)c4ccccc43)[C@@H]2C)cc1
[18]
  AC50: 17.3 µM (active)

## NC1=NC2(CCC(c3ccccc3)CC2)n2c(nc3ccccc32)N1 (stereo not given)
[10]
  CC50: 29.3 µM (active)

## O=C(COc1ccc([N+](=O)[O-])cc1)NNC(=S)NC(=O)c1ccc(Br)cc1
[16]
  EC50: > 150 µM (inactive)
[17]
  EC50: 3.09 µM (active)

## Cc1ccc(SCC(=O)OC(C)C(=O)NCc2ccccc2)cc1 (stereo not given)
[6]
  EC50: > 112 µM (not active)
[7]
  EC50: > 112 µM (not active)

## C=C(C)[C@@H]1C2=CC(C(=O)OC)=C(C[C@H](C(=C)C)[C@H]3O[C@H]3C3=C[C@H]1OC3=O)O2
[12]
  AC50: 8.16 µM (active)
[13]
  AC50: 13.3 µM (active)
[14]
  AC50: 5.23 µM (active)

## COC(=O)c1sc(N2C(=O)C(O)=C(C(=O)c3ccc(C)o3)C2c2ccc([N+](=O)[O-])cc2)nc1C (stereo not given)
[15]
  EC50: 4.55 µM (active)
Streptokinase A
  EC50: > 150 µM (not active)
Streptococcus
  EC50: 6.86 µM (active)
Genome polyprotein
  IC50: 38.5 µM (active)

## O=C(O)/C=C/C(=O)Nc1ccc(C2(c3ccc(NC(=O)/C=C/C(=O)O)cc3)c3ccccc3-c3ccccc32)cc1
[11]
  AC50: 13.3 µM (active)
Protein RecA
  EC50: 2.88 µM (active)
Genome polyprotein
  IC50: 18.1 µM (active)
